Assay [1] deals with T1, Prostaglandin G/H synthase 1 (Ovis aries) (UniProt P05979).
T1 sequence (whole entry): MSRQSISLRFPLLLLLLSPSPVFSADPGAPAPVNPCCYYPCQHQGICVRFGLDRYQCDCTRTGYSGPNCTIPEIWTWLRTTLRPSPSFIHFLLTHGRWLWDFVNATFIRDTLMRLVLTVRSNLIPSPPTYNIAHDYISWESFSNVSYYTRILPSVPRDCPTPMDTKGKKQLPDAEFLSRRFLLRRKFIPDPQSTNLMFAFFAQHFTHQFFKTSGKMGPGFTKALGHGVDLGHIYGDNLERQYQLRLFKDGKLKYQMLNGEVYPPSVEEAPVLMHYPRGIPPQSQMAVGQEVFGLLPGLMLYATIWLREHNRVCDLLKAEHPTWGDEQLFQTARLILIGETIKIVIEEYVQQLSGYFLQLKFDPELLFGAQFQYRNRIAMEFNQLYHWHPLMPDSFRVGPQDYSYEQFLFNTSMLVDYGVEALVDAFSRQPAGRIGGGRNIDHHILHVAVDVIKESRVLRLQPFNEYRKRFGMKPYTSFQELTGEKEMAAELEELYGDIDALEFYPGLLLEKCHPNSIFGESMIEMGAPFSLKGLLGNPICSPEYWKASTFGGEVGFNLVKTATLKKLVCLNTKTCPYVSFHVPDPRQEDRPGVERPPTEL
The assay is described as follows: Inhibition of ovine COX1 assessed as inhibition of PGF2a formation at 10 uM after 20 mins by Ellman's method.

The target of assay [2] is T2, Prostaglandin G/H synthase 1 (Ovis aries, UniProt P05979).
T2 sequence (P05979 whole entry): T1 sequence (whole entry)
The assay is described as follows: Inhibition of ovine COX1 assessed as inhibition of PGF2a formation after 20 mins by Ellman's method.

Assay [3] concerns the target T1, Prostaglandin G/H synthase 1 (Ovis aries). In words: Inhibition of ovine COX1 assessed as inhibition of PGF2a formation at 1 uM after 20 mins by Ellman's method.
Assay [4] has the same target. The assay is described as follows: Inhibition of ovine COX1 assessed as inhibition of PGF2a formation at 100 nM after 20 mins by Ellman's method.
The target is the same in assay [5]. In words: Inhibition of ovine COX1 assessed as inhibition of PGF2a formation at 100 uM after 20 mins by Ellman's method.
For assay [6] the target is unchanged. The assay is described as follows: Inhibition of ovine COX1 assessed as inhibition of PGF2a formation at 0.01 uM after 20 mins by Ellman's method.
Assay [7] in a line: Growth inhibition of human NCI60 cells after 48 hrs by sulforhodamine B assay. The class given is functional. The conditions noted are these: NCI60, 48 h.

With `N#CSC[C@@H]1C[C@@](O)(c2ccccc2)C[C@H](c2ccc(Br)cc2)O1` (relative stereo), the figures for the inhibition in assay [1], in assay [3] and in assay [4] were 94%, 65% and 48%, respectively. In assay [2], the IC50 was found to be 209 nM.

Consider `CCSC[C@@H]1C[C@](O)(c2ccccc2)[C@@H](c2ccccc2)[C@H](c2ccccc2)O1` (relative stereo), for which the inhibition was 38% in assay [1], 16% in assay [3] and 52% in assay [5]. The IC50 in assay [2] was determined as 13900 nM.

Regarding `N#CSC[C@@H]1C[C@](O)(c2ccccc2)[C@@H](c2ccccc2)[C@H](c2ccccc2)O1` (relative stereo), the inhibition in assay [1] came to 27%; in assay [3] it was 24%; in assay [5], 50%. In addition, the IC50 in assay [2] is 64000 nM.

Take `CCSC[C@@H]1C[C@@](O)(c2ccccc2)C[C@H](c2ccc(Cl)cc2)O1` (relative stereo): the inhibition in assay [1] stood at 94%; in assay [3] it was 60%; in assay [4], 45%. In assay [2], the half-maximal inhibitory concentration (IC50) was 413 nM.

As to `CCSC[C@@H]1C[C@@](O)(c2ccccc2)C[C@H](c2ccc(Br)cc2)O1` (relative stereo), the results for the inhibition in assay [1], in assay [3] and in assay [4] were 94%, 58% and 40%, respectively. Besides, in assay [2], the concentration for half-maximal inhibition (IC50) was 562 nM.

Consider `N#CSC[C@@H]1C[C@](O)(c2ccccc2)[C@@H](c2ccccc2)[C@H](c2ccc(Br)cc2)O1` (relative stereo), for which the inhibition in assay [1] amounted to 29%; in assay [3] it was 28%; in assay [5], 50%. Moreover, the IC50 in assay [2] is 13000 nM.

With `N#CSC[C@@H]1C[C@@](O)(c2ccccc2)C[C@H](c2ccccc2)O1` (relative stereo), the inhibition was 94% in assay [1], 39% in assay [3] and 26% in assay [4]. For the same molecule, the IC50 in assay [2] came to 2790 nM.

On to `CCSC[C@@H]1C[C@@](O)(c2ccccc2)C[C@H](C)O1` (relative stereo), for which the inhibition was 55% in assay [1]; 32% in assay [6]; 51% in assay [3]; 40% in assay [4]; 62% in assay [5]. Besides, in assay [2], the IC50 was found to be 347 nM.

Consider `C[C@H]1C[C@](O)(c2ccccc2)C[C@@H](CSC#N)O1` (relative stereo), for which the inhibition in assay [1] turned out to be 60%; in assay [6], 32%; in assay [3] it was 55%; in assay [4], 38%; in assay [5], 65%. Also, the IC50 in assay [2] came to 368 nM.

Consider `CCSC[C@@H]1C[C@@](O)(c2ccccc2)C[C@H](c2ccccc2)O1` (relative stereo), for which the inhibition came out at 94% in assay [1], 37% in assay [3] and 25% in assay [4]. Moreover, the IC50 in assay [2] was found to be 2930 nM.

Consider `CCSC[C@@H]1C[C@](O)(c2ccccc2)[C@@H](c2ccccc2)[C@H](c2ccc(Br)cc2)O1` (relative stereo), for which the inhibition in assay [1] is 38%; in assay [3], 41%; in assay [5] it was 60%. The IC50 in assay [2] was 23800 nM.

As for `Cc1ccc(-c2cc(C(F)(F)F)nn2-c2ccc(S(N)(=O)=O)cc2)cc1` [CELECOXIB], the GI50 in assay [7] amounted to 17500 nM. Also, in assay [7] (read-out: LC50 (the source's name)), the CC50 is 63300 nM.

The values above are taken from ChEMBL document CHEMBL1158584, “Mono-, di-, and triaryl substituted tetrahydropyrans as cyclooxygenase-2 and tumor growth inhibitors. Synthesis and biological evaluation” (J Med Chem, 2010).
